Data set [1] can be described thus: Crossover dietary trial: serum AED concentration. In kind it is in vivo, canine. Conditions: for concentration at 3 months: both sexes, mixed: 17 different breeds and cross breeds, dog, in vivo, read-out: serum concentration of PB. As for the experimental part: A 6-month prospective, randomized, double blinded, placebo controlled, crossover dietary trial comparing an MCT-containing diet to a standardized placebo diet containing no MCTs in canine epilepsy was performed. Subjects were fed either the MCT or placebo diet for 3 months (Day 1 to Day 90±2 days) followed by a subsequent respective switch of diet for a further 3 months (Day 90 to Day 180±2 days). Relevant data were collected on the following variables at visit 1 (Day −2), visit 2 (Day 90±2 days) and visit 3 (day 180±2 days): seizure frequency; body weight; measurements of serum phenobarbital (PB) and/or (potassium bromide) KBr concentration as appropriate; dynamic bile acids; complete blood cell count; standard clinical serum chemistry; and adverse events.
Seizure frequency refers to the number of seizures per month and seizure-days refers to the number of days in a month with seizure occurrence. The severity of seizures was analyzing using the McNemar test by comparing the presence of cluster seizures between diet groups. Comparisons made between the MCT and placebo standardized diet groups were made using match-paired student's t tests for parametric data and Wilcoxon matched-pairs signed rank test for non-parametric data where both were used two-sided and P<0.05 was considered significant. Non-parametric data are presented as median (25-75% percentile) and parametric data are shown as mean (+/−SD).
The present study used twenty-one dogs of 17 different canine breeds including: American bulldog; 2 Beagles; 2 Border Collies; Boxer; Cavalier King Charles Spaniel; English Bull Terrier; English Springer Spaniel; German Shepherd; Golden Retriever; Lhasa Apso; Mastiff; Rhodesian Ridgeback; Saint Bernard; Siberian Husky; Slovakian Rough Haired Pointer; Welsh Springer Spaniel and 3 Cross breeds. The study population consisted of 15 males, of which 10 were neutered and 5 were intact and 6 females of which 4 were neutered and 2 were intact. The dogs were of 4.59±1.73 years of age and weighed 29.79±14.73 kilograms at start of trial. All 21 dogs received PB. Most dogs were also treated additionally with KBr (n=18). Some dogs were chronically treated with a third AED, imepitoin (n=1) or levetiracetam (n=4). Twelve owners had rectal diazepam or levetiracetam for pulse therapy at home available for the acute treatment of cluster seizure episodes. There was no difference for the acute or chronic treatment regimens between the placebo or MCT phase.

Data set [2] deals with fifteen year old Dalmatian diagnosed with idiopathic epilepsy. Nature of the data set: Example 2 case: Dalmatian with idiopathic epilepsy. It is filed as in vivo, canine. The following applies: treatment subsequently discontinued. The source says: A fifteen year old Dalmatian was diagnosed with idiopathic epilepsy at age 3. Seizure phases of prodrome, aura, ictus, and postictal state were generally one to two […] in length. […] Subsequent treatment was proscribed in the form of an MCT diet (commercially available ProPlan® Senior 7+Chicken and Rice formula formulated to contain 5.6% MCTs, at least 26% crude protein, at least 15% crude fat, and 50% carbohydrates with less than 2% as crude fiber).

Each structure is given as a SMILES string. Read-outs that look alike come from different tables or passages of the source.

Results on two compounds are retold here after patent US10668041B2, “Compositions and methods comprising medium chain triglycerides for treatment of epilepsy” (Societe des Produits Nestle SA, priority 2014, dated 2020).

For the compound `[Br-].[K+]` [potassium bromide], the “serum concentration of potassium bromide” value turned out to be 1.29 mg/mL in data set [1] (MCT diet, spread 1.02-1.61 mg/ml, p=0.4037, no significant change) and 1.23 mg/mL in data set [1] (placebo-standardized diet, spread 1.09-1.89 mg/ml). The side effects entry in data set [2] is “polyphagia, sedation, and ataxia”.

For the compound `CCC1(c2ccccc2)C(=O)NC(=O)NC1=O` [PB, phenobarbital], the concentration at 3 months in data set [1] (MCT diet, spread 25.00-36.75 μg/ml, p=0.4233, no significant change) came out at 32500 ng/mL; in data set [1] (placebo-standardized diet, spread 23.50-34.00 μg/ml), 26500 ng/mL.
